Two molecules from patent US20080009415A1, “Fungicidal Mixtures” (BASF Aktiengesellschaft, priority 2004, published 2008) can be followed below.

For this test, the system named is Alternaria solani. The test can be described thus: Activity against early blight of tomato caused by Alternaria solani. The test is classed as in vivo. Conditions: single active compound, leaves sprayed to runoff, infected next day, assessed after 5 days, efficacy in % of untreated control (Abbot). As for the experimental part: The active compounds were prepared separately or jointly as a stock solution with 25 mg of active compound which was made up to 10 ml using a mixture of acetone and/or DMSO and the emulsifier Uniperol®) EL (wetting agent having emulsifying and dispersing action based on ethoxylated alkylphenols) in a volume ratio of solvent/emulsifier of 99 to 1. The mixture was then made up with water to 100 ml. This stock solution was diluted with the solvent/emulsifier/water mixture described to the concentration of active compounds stated below.
The visually determined percentages of infected leaf areas were converted into efficacies in % of the untreated control:
The efficacy (E) is calculated as follows using Abbot's formula: E=(1−α/β)·100 α corresponds to the fungicidal infection of the treated plants in % and β corresponds to the fungicidal infection of the untreated (control) plants in % An efficacy of 0 means that the infection level of the treated plants corresponds to that of the untreated control plants; an efficacy of 100 means that the treated plants were not infected.
The expected efficacies of mixtures of active compounds were determined using Colby's formula (Colby, S. R. “Calculating synergistic and antagonistic responses of herbicide combinations”, Weeds, 15, 20-22, 1967) and compared with the observed efficacies.
Colby's formula: E=x+y−x·y/100
E expected efficacy, expressed in % of the untreated control, when using the mixture of the active compounds A and B at the concentrations a and b x efficacy, expressed in % of the untreated control, when using the active compound A at the concentration a y efficacy, expressed in % of the untreated control, when using the active compound B at the concentration b Use Example—Activity Against Early Blight of Tomato Caused by Alternaria solani Leaves of potted plants of the cultivar “Goldene Königin” were sprayed to runoff point with an aqueous suspension having the concentration of active compound stated below. […]

With `CO/C=C(/C(=O)OC)c1ccccc1CO/N=C(C)/C=C/c1ccc(Cl)cc1` [enestroburin (I), methyl 2-{2-[3-(4-chlorophenyl)-1-methylallylideneaminooxymethyl]phenyl}-3-methoxyacrylate], the “Observed efficacy (%)” value (Conc. 4 ppm) is reported as 22%.
For `COc1cc(C)c(C(=O)c2c(OC)ccc(Br)c2C)c(OC)c1OC` [metrafenone (II-41), 3′-bromo-2,3,4,6′-tetramethoxy-2′,6-dimethylbenzophenone], the “Observed efficacy (%)” value reads like this: (Conc. 1 ppm) 0%; (Conc. 4 ppm) 0%.
